Reference: the supplement of paper PMC11451515

Key:
Settings in all cases: 48 h
SEM cells [1] = test: AUC of viability dose-response curve (% viability x log10 dose units); higher = less sensitive
How it was run: (§1)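 Leukemia cells adapted to each medium were seeded at 500 or 1000 cells/well in 1536-well plates and dosed with library compounds in DMSO at 11 threefold doses from 47 μM to 0.79 nM for 48 h at 37°C. CellTiter-Glo One luminescence was normalised per plate to DMSO and cell-free wells, then fitted with a four-parameter log-logistic model over log10 doses. Area under the curve was taken from this fit by the trapezoidal rule, with curves above full viability scaled and curves failing quality control removed.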

NOMO1 [2] = test: as above
How it was run: as §1

P12-Ichikawa [3] = test: as above
How it was run: as §1

SEM cells [4] = test: cell viability relative to DMSO control; higher = less cytotoxic
How it was run: (§2)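 NOMO1 or SEM (500 cells/well) or P12-Ichikawa (1000 cells/well) leukemia cells were adapted for at least four passages in each medium. They were seeded in 1536-well plates (5 μl) and pin-dosed with library compounds in DMSO over an 11-point threefold series, 47 μM to 0.79 nM. CellTiter-Glo One luminescence was read after 48 h at 37°C. Viability is the per-plate percentage relative to DMSO wells, with cell-free wells as background.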

NOMO1 [5] = test: as above
How it was run: as §2

P12-Ichikawa [6] = test: as above
How it was run: as §2

CC(C)CC(=O)N[C@H](C(=O)N[C@H](C(=O)N[C@@H](CC(C)C)[C@@H](O)CC(=O)N[C@@H](C)C(=O)N[C@@H](CC(C)C)[C@@H](O)CC(=O)O)C(C)C)C(C)C
AUC of viability dose-response curve
Settings	NOMO1 [2]	P12-Ichikawa [3]	SEM cells [1]
HPLM + 10% dialyzed FBS	450	471	443
RPMI 5 mM glucose + 10% FBS	445	476	435
RPMI 5 mM glucose + 10% dialyzed FBS	467	477	437

cell viability [%]
Settings	NOMO1 [5]	P12-Ichikawa [6]	SEM cells [4]
HPLM + 10% dialyzed FBS, 0.000781 µM	107	103	94.4
HPLM + 10% dialyzed FBS, 0.00234 µM	96.3	103	89.1
HPLM + 10% dialyzed FBS, 0.00702 µM	120	107	109
HPLM + 10% dialyzed FBS, 0.0211 µM	106	108	103
HPLM + 10% dialyzed FBS, 0.0632 µM	112	105	74.7
HPLM + 10% dialyzed FBS, 0.19 µM	117	114	95.9
HPLM + 10% dialyzed FBS, 0.569 µM	118	118	101
HPLM + 10% dialyzed FBS, 1.71 µM	108	116	108
HPLM + 10% dialyzed FBS, 5.12 µM	119	105	97.7
HPLM + 10% dialyzed FBS, 15.4 µM	124	111	96.6
HPLM + 10% dialyzed FBS, 46.1 µM	119	97.9	14.5
RPMI 5 mM glucose + 10% FBS, 0.000781 µM	105	108	82.7
RPMI 5 mM glucose + 10% FBS, 0.00234 µM	119	109	96.7
RPMI 5 mM glucose + 10% FBS, 0.00702 µM	94.4	121	115
RPMI 5 mM glucose + 10% FBS, 0.0211 µM	107	109	94.7
RPMI 5 mM glucose + 10% FBS, 0.0632 µM	102	97.6	68.1
RPMI 5 mM glucose + 10% FBS, 0.19 µM	114	113	104
RPMI 5 mM glucose + 10% FBS, 0.569 µM	99.8	105	106
RPMI 5 mM glucose + 10% FBS, 1.71 µM	108	113	99
RPMI 5 mM glucose + 10% FBS, 5.12 µM	93.1	122	98.7
RPMI 5 mM glucose + 10% FBS, 15.4 µM	97.8	103	89.6
RPMI 5 mM glucose + 10% FBS, 46.1 µM	90.3	108	10.4
RPMI 5 mM glucose + 10% dialyzed FBS, 0.000781 µM	91.6	98.1	93.5
RPMI 5 mM glucose + 10% dialyzed FBS, 0.00234 µM	98.4	99.7	116
RPMI 5 mM glucose + 10% dialyzed FBS, 0.00702 µM	111	106	92.2
RPMI 5 mM glucose + 10% dialyzed FBS, 0.0211 µM	115	102	93.4
RPMI 5 mM glucose + 10% dialyzed FBS, 0.0632 µM	104	96.6	73.1
RPMI 5 mM glucose + 10% dialyzed FBS, 0.19 µM	110	103	110
RPMI 5 mM glucose + 10% dialyzed FBS, 0.569 µM	112	107	95.5
RPMI 5 mM glucose + 10% dialyzed FBS, 1.71 µM	113	111	99.1
RPMI 5 mM glucose + 10% dialyzed FBS, 5.12 µM	116	102	94.9
RPMI 5 mM glucose + 10% dialyzed FBS, 15.4 µM	107	97.6	91.6
RPMI 5 mM glucose + 10% dialyzed FBS, 46.1 µM	105	96	10.9

COc1ccc(-c2nc(N3CCOCC3)c3sc(CN(C)c4ncc(C(=O)NO)cn4)cc3n2)cn1
AUC of viability dose-response curve
Settings	NOMO1 [2]	P12-Ichikawa [3]	SEM cells [1]
HPLM + 10% dialyzed FBS	156	163	136
RPMI 5 mM glucose + 10% FBS	169	162	113
RPMI 5 mM glucose + 10% dialyzed FBS	166	172	144

cell viability [%]
Settings	NOMO1 [5]	P12-Ichikawa [6]	SEM cells [4]
HPLM + 10% dialyzed FBS, 0.000781 µM	109	109	88.4
HPLM + 10% dialyzed FBS, 0.00234 µM	132	121	101
HPLM + 10% dialyzed FBS, 0.00702 µM	86.2	101	67.8
HPLM + 10% dialyzed FBS, 0.0211 µM	62.8	62.6	34.5
HPLM + 10% dialyzed FBS, 0.0632 µM	12.6	6.62	6.86
HPLM + 10% dialyzed FBS, 0.19 µM	8.22	7.21	6.43
HPLM + 10% dialyzed FBS, 0.569 µM	7.83	7.09	6.72
HPLM + 10% dialyzed FBS, 1.71 µM	8.13	6.69	6.14
HPLM + 10% dialyzed FBS, 5.12 µM	7.89	6.67	6.01
HPLM + 10% dialyzed FBS, 15.4 µM	7.72	6.8	5.89
HPLM + 10% dialyzed FBS, 46.1 µM	6.31	7.92	4.98
RPMI 5 mM glucose + 10% FBS, 0.000781 µM	110	102	90.5
RPMI 5 mM glucose + 10% FBS, 0.00234 µM	112	127	83.6
RPMI 5 mM glucose + 10% FBS, 0.00702 µM	100	111	49.9
RPMI 5 mM glucose + 10% FBS, 0.0211 µM	65.4	57.6	20.5
RPMI 5 mM glucose + 10% FBS, 0.0632 µM	14.2	7.68	6.31
RPMI 5 mM glucose + 10% FBS, 0.19 µM	8.1	7.7	6.48
RPMI 5 mM glucose + 10% FBS, 0.569 µM	8.11	7.72	5.87
RPMI 5 mM glucose + 10% FBS, 1.71 µM	8.29	6.89	5.83
RPMI 5 mM glucose + 10% FBS, 5.12 µM	7.05	7.19	6.2
RPMI 5 mM glucose + 10% FBS, 15.4 µM	7.28	7.05	5.41
RPMI 5 mM glucose + 10% FBS, 46.1 µM	6.26	5.24	3.98
RPMI 5 mM glucose + 10% dialyzed FBS, 0.000781 µM	117	107	97
RPMI 5 mM glucose + 10% dialyzed FBS, 0.00234 µM	132	119	108
RPMI 5 mM glucose + 10% dialyzed FBS, 0.00702 µM	104	108	78.3
RPMI 5 mM glucose + 10% dialyzed FBS, 0.0211 µM	73.7	74.2	37.7
RPMI 5 mM glucose + 10% dialyzed FBS, 0.0632 µM	22.8	10.5	7.5
RPMI 5 mM glucose + 10% dialyzed FBS, 0.19 µM	7.51	8.35	7.3
RPMI 5 mM glucose + 10% dialyzed FBS, 0.569 µM	7.58	8.38	6.64
RPMI 5 mM glucose + 10% dialyzed FBS, 1.71 µM	7.17	8.07	6.58
RPMI 5 mM glucose + 10% dialyzed FBS, 5.12 µM	6.72	7.55	5.98
RPMI 5 mM glucose + 10% dialyzed FBS, 15.4 µM	6.98	6.64	6.08
RPMI 5 mM glucose + 10% dialyzed FBS, 46.1 µM	6.02	5.83	4.38
